Laboratory results as given in patent publication US8277824B2, “Solubilization of cyclohexane-based carboxamide derivatives for use as sensates in consumer products” (The Procter & Gamble Company, priority 2008, dated 2012).
Read-outs that look alike come from different tables or passages of the source.

Assays:
[1] = demonstrated in commonly assigned U.S. Application No. 61/003,863; cited from earlier work
[2] = Experimental solubility limit of G-180 in liquid solvents (visual clarity); type: physicochemical; details: 25° C.
Protocol: The solubility of G-180 in various solvents was determined as follows. Aliquot one to twenty grams of a target solvent into a vial or flask. Weigh out G-180 to provide a concentration of 25%. […] Visually inspect for clarity. If the solution is not completely clear, add solvent, calculate new concentration of G-180 and repeat the solubilization energy and check for clarity. Once a level of clarity is achieved, repeat the process but increase the G-180 concentration by 10% until clarity is diminished. Once these cross points of clarity are achieved, this is reported as the experimental solubility limit of G-180 in the respective solvent.

[3] = concentration level where the cooling effect could be clearly recognized; Emberger and Hopp 1987; cited from earlier work
Cooling effect (sensory) = type: in vivo; details: neoisomer prepared in Procter & Gamble laboratories
From the text: Many of the compounds above including menthol have relatively low potency and the duration of the cooling effect is typically short-lived. Thus, it is necessary to include fairly high levels of such compounds when formulating products, which increases cost. In addition, many of these compounds are relatively high cost ingredients since they are expensive to manufacture on an industrial scale. Therefore, compounds with high potency and long lasting cooling effect are highly sought that will require only small amounts for incorporation in a variety of consumer products to provide high impact and long-lasting effect. Such potent and long lasting coolant compounds have recently been described for example in WO 2005/049553A1 to Givaudan including ρ-menthane carboxamides substituted at the amide N-position with an aryl moiety bearing certain substituents. Examples include N-(4-cyanomethylphenyl)-ρ-menthanecarboxamide; N-(4-sulfamoylphenyl)-ρ-menthanecarboxamide; N-(4-cyanophenyl)-ρ-menthanecarboxamide; N-(4-acetylphenyl)-ρ-menthanecarboxamide, N-(4-hydroxymethylphenyl)-ρ-menthanecarboxamide and N-(3-hydroxy-4-methoxyphenyl)-ρ-menthanecarboxamide. […]

Compound: CC(C)[C@@H]1CC[C@@H](C)C[C@H]1C(=O)Nc1ccc(CC#N)cc1 [G180, N-[4-(cyanomethyl)phenyl]-(1R,2S,5R)-2-isopropyl-5-methylcyclohexanecarboxamide]
- cooling effect [1]: intense and long-lasting cooling effect
- G180 Experimental % Solubility ([2]; solvent 2,3-dimethyl Pyrazine): 20.4%
- G180 Experimental % Solubility ([2]; solvent 2,5-dimethyl Pyrazine): 20.0%
- G180 Experimental % Solubility ([2]; solvent Benzaldehyde): 16.7%
- G180 Experimental % Solubility ([2]; solvent Benzyl Salicylate): 14.7%
- G180 Experimental % Solubility ([2]; solvent Benzyl alcohol): 21.2%
- G180 Experimental % Solubility ([2]; solvent Cuminylaldehyde): 20.0%
- G180 Experimental % Solubility ([2]; solvent Isoamyl propionate): 13.2%
- G180 Experimental % Solubility ([2]; solvent Menthone): 15.4%
- G180 Experimental % Solubility ([2]; solvent Neryl acetate): 7.4%
- G180 Experimental % Solubility ([2]; solvent Para-Tolualdehyde): 15.9%
- G180 Experimental % Solubility ([2]; solvent Triacetin): 4.4%
- G180 Experimental % Solubility ([2]; solvent Water): <0.1%
- G180 Experimental % Solubility ([2]; solvent α-Amyl Cinnamic Aldehyde): 12.1%

Compound: CC(C)[C@@H]1CC[C@@H](C)C[C@H]1O [L-menthol]
- cooling threshold [3]: about 800 ppb

Compound: CC(C)[C@@H]1CC[C@@H](C)C[C@@H]1O [d-neomenthol]
- cooling threshold [3]: about 25,000 ppb

Compound: CC(C)[C@H]1CC[C@H](C)C[C@H]1O [l-neomenthol]
- cooling threshold [3]: about 3,000 ppb

Compound: CC(C)[C@@H]1CC[C@@H](C)C[C@@H]1C(=O)Nc1ccc(CC#N)cc1 [neoisomer, N-[4-(cyanomethyl)phenyl]-(1S,2S,5R)-2-isopropyl-5-methylcyclohexanecarboxamide]
- cooling effect (Cooling effect (sensory)): potent and long-lasting cooling effect
